{"source": "patent US10071086B2", "about": "“1H-pyrazolo[3,4-b]pyridines and therapeutic uses thereof” (Samumed, LLC, priority 2012, dated 2018)", "note": "pIC50: −log10 of the molar value."}
{"test_system": "Wnt pathway", "assay": "Wnt activity reporter assay (SP5 promoter-luciferase in SW480 cells)", "type": "cell-based", "conditions": "Homo sapiens, SP5 promoter firefly luciferase reporter, read-out: Wnt inhibition", "excerpt": "The above synthesized compounds were screened using the assay procedure for Wnt activity described below.\nReporter cell lines can be generated by stably transducing cells of cancer cell lines (e.g., colon cancer) with a lentiviral construct that include a wnt-responsive promoter driving expression of the firefly luciferase gene.\nLentiviral constructs can be made in which the SP5 promoter, a promoter having eight TCF/LEF binding sites derived from the SP5 promoter, is linked upstream of the firefly luciferase gene. The lentiviral constructs can also include a hygromycin resistance gene as a selectable marker. The SP5 promoter construct can be used to transduce SW480 cells, a colon cancer cell line having a mutated APC gene that generates a truncated APC protein, leading to de-regulated accumulation of β-catenin.\nCultured SW480 cells bearing a reporter construct can be distributed at approximately 10,000 cells per well into 96 well or 384 well plates. Compounds from a small molecule compound library can then be added to the wells in half-log dilutions using a ten micromolar top concentration. A series of control wells for each cell type receive only buffer and compound solvent. Twenty-four to forty hours after the addition of compound, reporter activity for luciferase can be assayed, for example, by addition of the BrightGlo luminescence reagent (Promega) and the Victor3 plate reader (Perkin Elmer). Readings can be normalized to DMSO only treated cells, and normalized activities can then be used in the IC50 calculations."}
{"molecule": "CN(C)Cc1cncc(-c2cnc3[nH]nc(-c4nc5c(-c6cccnc6)cncc5[nH]4)c3c2)c1", "note": "[Compound 176, N,N-Dimethyl-1-(5-(3-(7-(pyridin-3-yl)-3H-imidazo[4,5-c]pyridin-2-yl)-1H-pyrazolo[3,4-b]pyridin-5-yl)pyridin-3-yl)methanamine]", "pIC50": 5.81}
{"molecule": "c1cncc(-c2cncc3[nH]c(-c4n[nH]c5ncc(-c6cncc(CN7CCCCC7)c6)cc45)nc23)c1", "note": "[Compound 178, 5-(5-(Piperidin-1-ylmethyl)pyridin-3-yl)-3-(7-(pyridin-3-yl)-3H-imidazo[4,5-c]pyridin-2-yl)-1H-pyrazolo[3,4-b]pyridine]", "pIC50": 6.41}
{"molecule": "CC(C)(C)CC(=O)Nc1cncc(-c2cnc3[nH]nc(-c4nc5c(-c6cccnc6)cncc5[nH]4)c3c2)c1", "note": "[Compound 179, 3,3-Dimethyl-N-(5-(3-(7-(pyridin-3-yl)-3H-imidazo[4,5-c]pyridin-2-yl)-1H-pyrazolo[3,4-b]pyridin-5-yl)pyridin-3-yl)butanamide]", "pIC50": 5.84}
{"molecule": "O=C(Nc1cncc(-c2cnc3[nH]nc(-c4nc5c(-c6cccnc6)cncc5[nH]4)c3c2)c1)C1CCCCC1", "note": "[Compound 185, N-(5-(3-(7-(Pyridin-3-yl)-3H-imidazo[4,5-c]pyridin-2-yl)-1H-pyrazolo[3,4-b]pyridin-5-yl)pyridin-3-yl)cyclohexanecarboxamide]", "pIC50": 5.88}
{"molecule": "Cc1ccncc1-c1cnc2[nH]nc(-c3nc4c(-c5ccncc5)cncc4[nH]3)c2c1", "note": "[Compound 192, 5-(4-Methylpyridin-3-yl)-3-(7-(pyridin-4-yl)-3H-imidazo[4,5-c]pyridin-2-yl)-1H-pyrazolo[3,4-b]pyridine]", "pIC50": 5.98}
{"molecule": "CC(C)Nc1cncc(-c2cnc3[nH]nc(-c4nc5c(-c6ccncc6)cncc5[nH]4)c3c2)c1", "note": "[Compound 198, N-Isopropyl-5-(3-(7-(pyridin-4-yl)-3H-imidazo[4,5-c]pyridin-2-yl)-1H-pyrazolo[3,4-b]pyridin-5-yl)pyridin-3-amine]", "pIC50": 5.95}
{"molecule": "c1ccc(CNCc2cncc(-c3cnc4[nH]nc(-c5nc6c(-c7ccncc7)cncc6[nH]5)c4c3)c2)cc1", "note": "[Compound 209, N-Benzyl-1-(5-(3-(7-(pyridin-4-yl)-3H-imidazo[4,5-c]pyridin-2-yl)-1H-pyrazolo[3,4-b]pyridin-5-yl)pyridin-3-yl)methanamine]", "pIC50": 5.01}
{"molecule": "O=C(Nc1cncc(-c2cnc3[nH]nc(-c4nc5c(-c6ccccn6)cncc5[nH]4)c3c2)c1)C1CCC1", "note": "[Compound 229, N-(5-(3-(7-(Pyridin-2-yl)-3H-imidazo[4,5-c]pyridin-2-yl)-1H-pyrazolo[3,4-b]pyridin-5-yl)pyridin-3-yl)cyclobutanecarboxamide]", "pIC50": 7.92}
{"molecule": "Nc1cncc(-c2cnc3[nH]nc(-c4nc5c(N6CCCCC6)cncc5[nH]4)c3c2)c1", "note": "[Compound 238, 5-(3-(7-(Piperidin-1-yl)-3H-imidazo[4,5-c]pyridin-2-yl)-1H-pyrazolo[3,4-b]pyridin-5-yl)pyridin-3-amine]", "pIC50": 6.46}
{"molecule": "CCNCc1cncc(-c2cnc3[nH]nc(-c4nc5c(N6CCCCC6)cncc5[nH]4)c3c2)c1", "note": "[Compound 241, N-((5-(3-(7-(Piperidin-1-yl)-3H-imidazo[4,5-c]pyridin-2-yl)-1H-pyrazolo[3,4-b]pyridin-5-yl)pyridin-3-yl)methyl)ethanamine]", "pIC50": 6.72}
{"molecule": "O=C(Nc1cncc(-c2cnc3[nH]nc(-c4nc5c(N6CCCCC6)cncc5[nH]4)c3c2)c1)c1ccccc1", "note": "[Compound 246, N-(5-(3-(7-(Piperidin-1-yl)-3H-imidazo[4,5-c]pyridin-2-yl)-1H-pyrazolo[3,4-b]pyridin-5-yl)pyridin-3-yl)benzamide]", "pIC50": 5.90}
{"molecule": "c1ncc(-c2cnc3[nH]nc(-c4nc5c(N6CCCCC6)cncc5[nH]4)c3c2)cc1CN1CCCC1", "note": "[Compound 249, 3-(7-(Piperidin-1-yl)-3H-imidazo[4,5-c]pyridin-2-yl)-5-(5-(pyrrolidin-1-ylmethyl)pyridin-3-yl)-1H-pyrazolo[3,4-b]pyridine]", "pIC50": 5.00}
{"molecule": "O=C(Nc1cncc(-c2cnc3[nH]nc(-c4nc5c(N6CCCCC6)cncc5[nH]4)c3c2)c1)C1CC1", "note": "[Compound 254, N-(5-(3-(7-(Piperidin-1-yl)-3H-imidazo[4,5-c]pyridin-2-yl)-1H-pyrazolo[3,4-b]pyridin-5-yl)pyridin-3-yl)cyclopropanecarboxamide]", "pIC50": 6.63}
{"molecule": "CCCCC(=O)Nc1cncc(-c2cnc3[nH]nc(-c4nc5c(N6CCN(C)CC6)cncc5[nH]4)c3c2)c1", "note": "[Compound 305, N-(5-(3-(7-(4-Methylpiperazin-1-yl)-3H-imidazo[4,5-c]pyridin-2-yl)-1H-pyrazolo[3,4-b]pyridin-5-yl)pyridin-3-yl)pentanamide]", "pIC50": 5.13}
{"molecule": "CN1CCN(c2cncc3[nH]c(-c4n[nH]c5ncc(-c6cncc(NC(=O)C7CCCCC7)c6)cc45)nc23)CC1", "note": "[Compound 309, N-(5-(3-(7-(4-Methylpiperazin-1-yl)-3H-imidazo[4,5-c]pyridin-2-yl)-1H-pyrazolo[3,4-b]pyridin-5-yl)pyridin-3-yl)cyclohexanecarboxamide]", "pIC50": 5.99}
{"molecule": "CC(C)Nc1cncc(-c2cnc3[nH]nc(-c4nc5ccncc5[nH]4)c3c2)c1", "note": "[Compound 325, 5-(3-(3H-Imidazo[4,5-c]pyridin-2-yl)-1H-pyrazolo[3,4-b]pyridin-5-yl)-N-isopropylpyridin-3-amine]", "pIC50": 7.24}
{"molecule": "c1ccc(CNCc2cncc(-c3cnc4[nH]nc(-c5nc6ccncc6[nH]5)c4c3)c2)cc1", "note": "[Compound 336, 1-(5-(3-(3H-Imidazo[4,5-c]pyridin-2-yl)-1H-pyrazolo[3,4-b]pyridin-5-yl)pyridin-3-yl)-N-benzylmethanamine]", "pIC50": 6.10}
{"molecule": "CN(C)c1cncc(-c2cnc3[nH]nc(-c4nc5c(-c6ccsc6)cncc5[nH]4)c3c2)c1", "note": "[Compound 346, N,N-Dimethyl-5-(3-(7-(thiophen-3-yl)-3H-imidazo[4,5-c]pyridin-2-yl)-1H-pyrazolo[3,4-b]pyridin-5-yl)pyridin-3-amine]", "pIC50": 7.25}
{"molecule": "CN(C)Cc1cncc(-c2cnc3[nH]nc(-c4nc5c(-c6ccsc6)cncc5[nH]4)c3c2)c1", "note": "[Compound 352, N,N-Dimethyl-1-(5-(3-(7-(thiophen-3-yl)-3H-imidazo[4,5-c]pyridin-2-yl)-1H-pyrazolo[3,4-b]pyridin-5-yl)pyridin-3-yl)methanamine]", "pIC50": 7.24}
{"molecule": "c1cc(-c2cncc3[nH]c(-c4n[nH]c5ncc(-c6cncc(CN7CCCCC7)c6)cc45)nc23)cs1", "note": "[Compound 354, 5-(5-(Piperidin-1-ylmethyl)pyridin-3-yl)-3-(7-(thiophen-3-yl)-3H-imidazo[4,5-c]pyridin-2-yl)-1H-pyrazolo[3,4-b]pyridine]", "pIC50": 6.53}
{"molecule": "CC(C)(C)C(=O)Nc1cncc(-c2cnc3[nH]nc(-c4nc5c(-c6ccoc6)cncc5[nH]4)c3c2)c1", "note": "[Compound 373, N-(5-(3-(7-(Furan-3-yl)-3H-imidazo[4,5-c]pyridin-2-yl)-1H-pyrazolo[3,4-b]pyridin-5-yl)pyridin-3-yl)pivalamide]", "pIC50": 7.15}
{"molecule": "O=C(Nc1cncc(-c2cnc3[nH]nc(-c4nc5c(-c6ccoc6)cncc5[nH]4)c3c2)c1)c1ccccc1", "note": "[Compound 376, N-(5-(3-(7-(Furan-3-yl)-3H-imidazo[4,5-c]pyridin-2-yl)-1H-pyrazolo[3,4-b]pyridin-5-yl)pyridin-3-yl)benzamide]", "pIC50": 7.29}
{"molecule": "CCCC(=O)Nc1cncc(-c2cnc3[nH]nc(-c4nc5c(-c6ccoc6)cncc5[nH]4)c3c2)c1", "note": "[Compound 382, N-(5-(3-(7-(Furan-3-yl)-3H-imidazo[4,5-c]pyridin-2-yl)-1H-pyrazolo[3,4-b]pyridin-5-yl)pyridin-3-yl)butyramide]", "pIC50": 8.52}
{"molecule": "CCC(=O)Nc1cncc(-c2cnc3[nH]nc(-c4nc5c(-c6cccs6)cncc5[nH]4)c3c2)c1", "note": "[Compound 440, N-(5-(3-(7-(Thiophen-2-yl)-3H-imidazo[4,5-c]pyridin-2-yl)-1H-pyrazolo[3,4-b]pyridin-5-yl)pyridin-3-yl)propionamide]", "pIC50": 8.40}
{"molecule": "c1cncc(-c2cnc3[nH]nc(-c4nc5c(-c6cccs6)cncc5[nH]4)c3c2)c1", "note": "[Compound 443, 5-(Pyridin-3-yl)-3-(7-(thiophen-2-yl)-3H-imidazo[4,5-c]pyridin-2-yl)-1H-pyrazolo[3,4-b]pyridine]", "pIC50": 9.00}
{"molecule": "O=C(Nc1cncc(-c2cnc3[nH]nc(-c4nc5c(-c6cccs6)cncc5[nH]4)c3c2)c1)C1CC1", "note": "[Compound 458, N-(5-(3-(7-(Thiophen-2-yl)-3H-imidazo[4,5-c]pyridin-2-yl)-1H-pyrazolo[3,4-b]pyridin-5-yl)pyridin-3-yl)cyclopropanecarboxamide]", "pIC50": 7.66}
{"molecule": "c1csc(-c2cncc3[nH]c(-c4n[nH]c5ncc(-c6cncc(CNCC7CCCC7)c6)cc45)nc23)c1", "note": "[Compound 463, 1-Cyclopentyl-N-((5-(3-(7-(thiophen-2-yl)-3H-imidazo[4,5-c]pyridin-2-yl)-1H-pyrazolo[3,4-b]pyridin-5-yl)pyridin-3-yl)methyl)methanamine]", "pIC50": 7.01}
{"molecule": "CCNCc1cncc(-c2cnc3[nH]nc(-c4nc5c(-c6cccc(F)c6)cccc5[nH]4)c3c2)c1", "note": "[Compound 547, N-((5-(3-(4-(3-Fluorophenyl)-1H-benzo[d]imidazol-2-yl)-1H-pyrazolo[3,4-b]pyridin-5-yl)pyridin-3-yl)methyl)ethanamine]", "pIC50": 7.01}
{"molecule": "CC(C)Nc1cncc(-c2cnc3[nH]nc(-c4nc5c(-c6cccc(F)c6)cccc5[nH]4)c3c2)c1", "note": "[Compound 551, 5-(3-(4-(3-Fluorophenyl)-1H-benzo[d]imidazol-2-yl)-1H-pyrazolo[3,4-b]pyridin-5-yl)-N-isopropylpyridin-3-amine]", "pIC50": 7.48}
